Results on 35 molecules are retold here after patent US9511073B2, “Aromatic amides and uses thereof” (TAXIS Pharmaceuticals, Inc., priority 2011, dated 2016).

Each structure is given as a SMILES string. Values after ≈ are worked out from the molar mass of the structure shown.

The assay deals with Staphylococcus aureus (Isolate ID ATCC 29213). Description: Bacterial assay: MIC by broth microdilution or agar dilution (CLSI), S. aureus ATCC 29213. In kind it is cell-based. To be noted: Staphylococcus aureus, ATCC29213, read-out: S. aureus MIC (μg/mL) Activity Range, S. aureus (ATCC29213). The method in brief:
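Activity is binned (A ≤0.25 μg/mL; B >0.25–1.0; C >1.0–16; D >16 μg/mL) from MICs determined per CLSI by broth microdilution or agar dilution, on S. aureus ATCC 29213 plus an FtsZ-G196A mutant strain.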
`COc1ccc(-c2nc(C(CO)Oc3ccc(F)c(C(N)=O)c3F)oc2Br)nc1` (centres unmarked) [Compound 238, 3-(1-(5-bromo-4-(5-methoxypyridin-2-yl)oxazol-2-yl)-2-hydroxyethoxy)-2,6-difluorobenzamide]: the MIC is > 16 µg/mL.
The result for `Cc1cc(Cl)ccc1-c1nc(C(CO)Oc2ccc(F)c(C(N)=O)c2F)oc1Br` (centres unmarked) [Compound 239, 3-(1-(5-bromo-4-(4-chloro-2-methylphenyl)oxazol-2-yl)-2-hydroxyethoxy)-2,6-difluorobenzamide] reads < 0.25 µg/mL.
As for `Cc1nc(-c2nc(C(CO)Oc3ccc(F)c(C(N)=O)c3F)oc2Br)sc1C` (centres unmarked) [Compound 240, 3-(1-(5-bromo-4-(4,5-dimethylthiazol-2-yl)oxazol-2-yl)-2-hydroxyethoxy)-2,6-difluorobenzamide], the MIC was > 16 µg/mL.
The result for `NC(=O)c1c(F)ccc(OC(CO)c2nc(-c3ccc(Cl)nc3)c(Br)o2)c1F` (centres unmarked) [Compound 241, 3-(1-(5-bromo-4-(6-chloropyridin-3-yl)oxazol-2-yl)-2-hydroxyethoxy)-2,6-difluorobenzamide] reads 1 to 16 µg/mL (≈ 2.11 to 33.7 µM).
The result for `COCCOc1ccc(-c2nc(C(CO)Oc3ccc(F)c(C(N)=O)c3F)oc2Br)cc1` (centres unmarked) [Compound 242, 3-(1-(5-bromo-4-(4-(2-methoxyethoxy)phenyl)oxazol-2-yl)-2-hydroxyethoxy)-2,6-difluorobenzamide] reads 1 to 16 µg/mL (≈ 1.95 to 31.2 µM); that for `NC(=O)c1c(F)ccc(OC(CO)c2nc(-c3cccs3)c(Br)o2)c1F` (centres unmarked) [Compound 243, 3-(1-(5-bromo-4-(thiophen-2-yl)oxazol-2-yl)-2-hydroxyethoxy)-2,6-difluorobenzamide], 1 to 16 µg/mL (≈ 2.25 to 35.9 µM); that for `Cc1ccc(-c2nc(C(CO)Oc3ccc(F)c(C(N)=O)c3F)oc2Br)s1` (centres unmarked) [Compound 244, 3-(1-(5-bromo-4-(5-methylthiophen-2-yl)oxazol-2-yl)-2-hydroxyethoxy)-2,6-difluorobenzamide], 1 to 16 µg/mL (≈ 2.18 to 34.8 µM).
The result for `Cc1nc(C)c(-c2nc(C(CO)Oc3ccc(F)c(C(N)=O)c3F)oc2Br)s1` (centres unmarked) [Compound 245, 3-(1-(5-bromo-4-(2,4-dimethylthiazol-5-yl)oxazol-2-yl)-2-hydroxyethoxy)-2,6-difluorobenzamide] reads > 16 µg/mL; that for `COC(=O)c1ccc(-c2nc(C(CO)Oc3ccc(F)c(C(N)=O)c3F)oc2Br)cc1` (centres unmarked) [Compound 246, methyl 4-(5-bromo-2-(1-(3-carbamoyl-2,4-difluorophenoxy)-2-hydroxyethyl)oxazol-4-yl)benzoate], 1 to 16 µg/mL (≈ 2.01 to 32.2 µM); that for `NC(=O)c1c(F)ccc(O[C@H](CO)c2nc(-c3cncs3)c(Br)o2)c1F` [Compound 247B, (R)-3-(1-(5-bromo-4-(thiazol-5-yl)oxazol-2-yl)-2-hydroxyethoxy)-2,6-difluorobenzamide], > 16 µg/mL.
As for `NC(=O)c1c(F)ccc(OC(CO)c2nc(-c3ccc(F)c(F)c3)c(Br)o2)c1F` (centres unmarked) [Compound 248, 3-(1-(5-bromo-4-(3,4-difluorophenyl)oxazol-2-yl)-2-hydroxyethoxy)-2,6-difluorobenzamide], the MIC is 1 to 16 µg/mL (≈ 2.1 to 33.7 µM).
The result for `N#Cc1ccc(-c2nc([C@@H](CO)Oc3ccc(F)c(C(N)=O)c3F)oc2Br)cn1` [Compound 249B, (R)-3-(1-(5-bromo-4-(6-cyanopyridin-3-yl)oxazol-2-yl)-2-hydroxyethoxy)-2,6-difluorobenzamide] reads 1 to 16 µg/mL (≈ 2.15 to 34.4 µM).
The result for `NC(=O)c1c(F)ccc(O[C@H](CO)c2nc(-c3ccc(Cl)s3)c(Br)o2)c1F` [Compound 250B, (R)-3-(1-(5-bromo-4-(5-chlorothiophen-2-yl)oxazol-2-yl)-2-hydroxyethoxy)-2,6-difluorobenzamide] reads < 0.25 µg/mL.
To `NC(=O)c1c(F)ccc(OC(CO)c2nc(-c3ccc(C(=O)O)cc3)c(Br)o2)c1F` (centres unmarked) [Compound 251, 4-(5-bromo-2-(1-(3-carbamoyl-2,4-difluorophenoxy)-2-hydroxyethyl)oxazol-4-yl)benzoic acid] belongs > 16 µg/mL; to `CN(C)C(=O)c1ccc(-c2nc(C(CO)Oc3ccc(F)c(C(N)=O)c3F)oc2Br)cc1` (centres unmarked) [Compound 252, 4-(5-bromo-2-(1-(3-carbamoyl-2,4-difluorophenoxy)-2-hydroxyethyl)oxazol-4-yl)-N,N-dimethylbenzamide], > 16 µg/mL; to `NC(=O)c1c(F)ccc(O[C@H](CO)c2nc(-c3ccc4c(c3)CCO4)c(Br)o2)c1F` [Compound 253B, (R)-3-(1-(5-bromo-4-(2,3-dihydrobenzofuran-5-yl)oxazol-2-yl)-2-hydroxyethoxy)-2,6-difluorobenzamide], 1 to 16 µg/mL (≈ 2.08 to 33.2 µM).
For the molecule `NC(=O)c1c(F)ccc(O[C@H](CO)c2nc(-c3ccc4occc4c3)c(Br)o2)c1F` [Compound 254B, (R)-3-(1-(4-(benzofuran-5-yl)-5-bromooxazol-2-yl)-2-hydroxyethoxy)-2,6-difluorobenzamide], the MIC was 1 to 16 µg/mL (≈ 2.09 to 33.4 µM).
To `NC(=O)c1c(F)ccc(O[C@H](CO)c2nc(-c3ccc(C(=O)N4CCOCC4)cc3)c(Br)o2)c1F` [Compound 255B, (R)-3-(1-(5-bromo-4-(4-(morpholine-4-carbonyl)phenyl)oxazol-2-yl)-2-hydroxyethoxy)-2,6-difluorobenzamide] belongs > 16 µg/mL; to `NC(=O)c1c(F)ccc(OC(CO)c2nc(-c3ccc(N4CCCC4)c(Br)c3)c(Br)o2)c1F` (centres unmarked) [Compound 256, 3-(1-(5-bromo-4-(3-bromo-4-(pyrrolidin-1-yl)phenyl)oxazol-2-yl)-2-hydroxyethoxy)-2,6-difluorobenzamide], 1 to 16 µg/mL (≈ 1.7 to 27.2 µM); to `COc1ncc(-c2nc([C@@H](CO)Oc3ccc(F)c(C(N)=O)c3F)oc2Br)cn1` [Compound 257B, (R)-3-(1-(5-bromo-4-(2-methoxypyrimidin-5-yl)oxazol-2-yl)-2-hydroxyethoxy)-2,6-difluorobenzamide], > 16 µg/mL.
The result for `NC(=O)c1c(F)ccc(OC(CO)c2csc(-c3ccc(Cl)cc3)n2)c1F` (centres unmarked) [Compound 258, 3-(1-(2-(4-chlorophenyl)thiazol-4-yl)-2-hydroxyethoxy)-2,6-difluorobenzamide] reads 1 to 16 µg/mL (≈ 2.43 to 38.9 µM); that for `COc1ccc(-c2csc(C(CO)Oc3ccc(F)c(C(N)=O)c3F)n2)cc1` (centres unmarked) [Compound 259, 2,6-difluoro-3-(2-hydroxy-1-(4-(4-methoxyphenyl)thiazol-2-yl)ethoxy)benzamide], 1 to 16 µg/mL (≈ 2.46 to 39.4 µM).
`COc1ccc(-c2csc(C(CO)Oc3ccc(F)c(C(N)=O)c3F)n2)nc1` (centres unmarked) [Compound 260, 2,6-difluoro-3-(2-hydroxy-1-(4-(5-methoxypyridin-2-yl)thiazol-2-yl)ethoxy)benzamide]: the MIC was 1 to 16 µg/mL (≈ 2.45 to 39.3 µM).
To `COc1cnc(-c2csc(C(CO)Oc3ccc(F)c(C(N)=O)c3F)n2)cn1` (centres unmarked) [Compound 261, 2,6-difluoro-3-(2-hydroxy-1-(4-(5-methoxypyrazin-2-yl)thiazol-2-yl)ethoxy)benzamide] belongs 1 to 16 µg/mL (≈ 2.45 to 39.2 µM); to `COc1ccc(CCc2csc(C(CO)Oc3ccc(F)c(C(N)=O)c3F)n2)cc1` (centres unmarked) [Compound 262, 2,6-difluoro-3-(2-hydroxy-1-(4-(4-methoxyphenethyl)thiazol-2-yl)ethoxy)benzamide], 1 to 16 µg/mL (≈ 2.3 to 36.8 µM); to `NC(=O)c1c(F)ccc(OC(COC(=O)CCC(=O)O)c2nc(-c3ccc(F)cc3F)c(Br)o2)c1F` (centres unmarked) [Compound 263, 4-(2-(5-bromo-4-(2,4-difluorophenyl)oxazol-2-yl)-2-(3 carbamoyl-2,4-difluorophenoxy)ethoxy)-4-oxobutanoic acid], 1 to 16 µg/mL (≈ 1.74 to 27.8 µM).
To `Cc1ccc(-c2csc(C(CO)Oc3ccc(F)c(C(N)=O)c3F)n2)cn1` (centres unmarked) [Compound 264, 2,6-difluoro-3-(2-hydroxy-1-(4-(6-methylpyridin-3-yl)thiazol-2-yl)ethoxy)benzamide] belongs > 16 µg/mL; to `NC(=O)c1c(F)ccc(O[C@H](COCCO)c2nc(-c3ccc(F)cc3F)c(Br)o2)c1F` [Compound 265B, (R)-3-(1-(5-bromo-4-(2,4-difluorophenyl)oxazol-2-yl)-2-(2-hydroxyethoxy)ethoxy)-2,6-difluorobenzamide], 1 to 16 µg/mL (≈ 1.93 to 30.8 µM).
The result for `NC(=O)c1c(F)ccc(O[C@H](CO)c2nc3cc(Cl)cnc3s2)c1F` [Compound 266B, (R)-3-(1-(6-chlorothiazolo[5,4-b]pyridin-2-yl)-2-hydroxyethoxy)-2,6-difluorobenzamide] reads 1 to 16 µg/mL (≈ 2.59 to 41.5 µM).
`NC(=O)c1c(F)ccc(OC(CO)c2scc(-c3ccc(Cl)cc3)[n+]2[O-])c1F` (centres unmarked) [Compound 267, 2-(1-(3-carbamoyl-2,4-difluorophenoxy)-2-hydroxyethyl)-4-(4-chlorophenyl)thiazole 3-oxide]: the MIC was > 16 µg/mL.
The result for `COc1ccc(-c2coc([C@H](C)Oc3ccc(F)c(C(N)=O)c3F)n2)cc1` [Compound 268A, (S)-2,6-difluoro-3-(1-(4-(4-methoxyphenyl)oxazol-2-yl)ethoxy)benzamide] reads > 16 µg/mL; that for `NC(=O)c1c(F)ccc(OC(CO)c2nc(-c3ccc(C(F)(F)F)cc3)c(C3CC3)o2)c1F` (centres unmarked) [Compound 269, 3-(1-(5-cyclopropyl-4-(4-(trifluoromethyl)phenyl)oxazol-2-yl)-2-hydroxyethoxy)-2,6-difluorobenzamide], 1 to 16 µg/mL (≈ 2.14 to 34.2 µM).
To `CSc1ccc(OC(CO)c2nc(-c3ccc(C(F)(F)F)cc3)c(SC)o2)c(F)c1C(N)=O` (centres unmarked) [Compound 270, 2-fluoro-3-(2-hydroxy-1-(5-(methylthio)-4-(4-(trifluoromethyl)phenyl)oxazol-2-yl)ethoxy)-6-(methylthio)benzamide] belongs > 16 µg/mL; to `CSc1oc(C(CO)Oc2ccc(F)c(C(N)=O)c2F)nc1-c1ccc(C(F)(F)F)cc1` (centres unmarked) [Compound 271, 2,6-difluoro-3-(2-hydroxy-1-(5-(methylthio)-4-(4-(trifluoromethyl)phenyl)oxazol-2-yl)ethoxy)benzamide], 0.25 to 1 µg/mL (≈ 0.527 to 2.11 µM); to `NC(=O)c1c(F)ccc(O[C@H](CO)c2nc(-c3ccc(C(F)(F)F)cc3)co2)c1F` [Compound 272B, (R)-2,6-difluoro-3-(2-hydroxy-1-(4-(4-(trifluoromethyl)phenyl)oxazol-2-yl)ethoxy)benzamide], 1 to 16 µg/mL (≈ 2.33 to 37.4 µM).
